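Values below derive from 48-hour exposures of cells grown in 96-well plates, with endpoints linearly interpolated between the two concentrations bracketing the appropriate inhibition level. TGI: total growth inhibition.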 Where a SMILES comes first, the peptide text is derived from it. The star is where a group is joined. Boc = CC(C)(C)OC(=O)*; OBn = c1ccc(CO*)cc1
Tests used:
Assay in all cases: NCI tumour cell line growth inhibition, 48 h
ACHN renal = test system: ACHN renal
SF-268 CNS = test system: SF-268 CNS
DLD-1 colon = test system: DLD-1 colon
DMS 114 small cell lung = test system: DMS 114 small cell lung
DMS 273 small cell lung = test system: DMS 273 small cell lung
KM20L2 colon = test system: KM20L2 colon
LXFL 529 NSCLC = test system: LXFL 529 NSCLC
M19-MEL melanoma = test system: M19-MEL melanoma
SNB-78 CNS = test system: SNB-78 CNS
XF 498 CNS = test system: XF 498 CNS
RXF-631 renal = test system: RXF-631 renal
HOP-18 NSCLC = test system: HOP-18 NSCLC
P388 leukemia = test system: P388 leukemia
P388/ADR leukemia = test system: P388/ADR leukemia
SN12K1 renal = test system: SN12K1 renal

SMILES	TGI (ACHN renal) [µM]	TGI (SF-268 CNS) [µM]	other results
Cc1ccc2c(c1)C(=O)/C(=N/Nc1ccc(Cl)cc1)CCO2	> 100	> 100	–
CCN(CC)C1Oc2cc3c(cc2C(c2ccc(OC)cc2)C1C)OCO3 (centres undefined)	59.6	50.1	–
COC(=O)Nc1nc2ccc(S(=O)(=O)NC(CC(C)C)C(=O)OC)cc2[nH]1 (centres undefined)	> 100	> 100	–
COC(=O)C(Cc1c[nH]c2ccccc12)N=C1Nc2ccncc2S(=O)(=O)N1c1ccccc1 (centres undefined)	> 100	> 100	–
CC(=O)C(=[N+]=[N-])C(=O)NCC#N	> 10	> 10	–
CCC(C)C(C(=O)N/N=C1/SCC(=O)N1c1ccccc1)C(=O)N/N=C1/SCC(=O)N1c1ccccc1 (centres undefined)	> 100	> 100	–
O=C1C(=O)c2c(oc(=O)c3ccccc23)-c2ccccc21	> 25	> 25	–
CN(C)c1ccc(/C=N\NC(=O)c2ccccc2Nc2ccccc2C(=O)N/N=C/c2ccc(N(C)C)cc2)cc1	> 100	> 100	–
C=C(Cl)c1c(OC)cccc1OCc1ccccc1	> 100	> 100	–
CO[C@H]1c2cccc3cccc(c23)[C@@H]1n1[nH]c(=O)n(C(C)(C)C)c1=O	–	> 100	–
C/C1=C/C(C)CC(C)OC(=O)C(C)NC(=O)C(Cc2ccc(O)c(I)c2)N(C)C(=O)CNC(=O)C(C)C1 (centres undefined)	–	1.35	–
CC1=NN(C(=O)CC(=O)Nc2ccc(C)cc2)C(=O)C1N=Nc1ccc(C(=O)O)cc1 (centres undefined)	> 100	> 100	–
CC(C)C(NC(=O)C(Cc1ccccc1)NC(=O)OC(C)(C)C)C(=O)NCC(=O)OCc1ccccc1 (stereo not drawn) (Boc-Phe-Val-Gly-OBn; configuration not given here)	31.4	28.2	–
c1ccc2c(C3CCN(CCN4CCOCC4)C3)c[nH]c2c1 (centres undefined)	> 100	> 100	–
CCOC(=O)C1=CN/C(=C(/C)C(=O)OC)SC1C(=O)OCC (centres undefined)	> 100	> 100	–
O=C(N/N=C/c1ccc2c(c1)OCO2)Nc1ccccc1Cl	> 100	> 82.5	–
ClC1(Cl)C(c2ccccc2)C1c1ccccc1 (centres undefined)	89.7	> 100	–
COC(=O)C1=C(O)C(C(=O)OC)[C@]2(O)[C@H](C(=O)OC)[C@H]1C[C@@H](c1ccc(F)cc1)[C@H]2C(=O)OC (some centres undefined)	43.5	95	–
CNc1c2cccc(C)c2nc2c(C(=O)NCCN(C)C)cccc12	0.723	0.318	–
OC1(CCc2ccccc2)COC(C(F)(F)F)(C(F)(F)F)C1 (centres undefined)	> 100	> 100	–
O=C(Nc1ccc(Cl)cc1)C(=O)C(C(=O)c1ccccc1-c1ccccc1)C1OC(=O)c2ccccc21 (centres undefined)	92.4	64.1	TGI (DLD-1 colon): > 100 µM; TGI (DMS 114 small cell lung): 38.8 µM; TGI (DMS 273 small cell lung): > 100 µM; TGI (KM20L2 colon): 55.6 µM; TGI (LXFL 529 NSCLC): 34.2 µM; TGI (M19-MEL melanoma): 41.6 µM; TGI (SNB-78 CNS): > 100 µM; TGI (XF 498 CNS): 36.6 µM
O=C(c1ccccc1)c1ccc2nc3n(c2c1)C(c1c(F)cccc1F)SC3 (centres undefined)	24.8	> 70.2	–
CCOC(=O)NNC(=O)C1CSC(c2ccccc2)N1C(C)=O (centres undefined)	> 100	> 100	–
COC(=O)C(C)NP(=O)(N1CC1)N1CC1 (centres undefined)	> 100	> 100	TGI (DLD-1 colon): > 100 µM; TGI (DMS 114 small cell lung): > 100 µM; TGI (DMS 273 small cell lung): > 100 µM; TGI (KM20L2 colon): > 100 µM; TGI (LXFL 529 NSCLC): > 100 µM; TGI (RXF-631 renal): > 100 µM; TGI (SNB-78 CNS): > 100 µM; TGI (XF 498 CNS): > 100 µM
Cc1ccc2nc(CN3CCCC(O)C3)cc(=O)n2c1 (centres undefined)	> 100	> 100	–
Nc1nc(N)c2cc(Sc3ccc4nc(N)nc(N)c4c3)ccc2n1	> 100	> 100	–

SMILES	TGI (ACHN renal) [µM]	TGI (SF-268 CNS) [µM]	other results
CC12CCC3[C@@H](CC3(C)C)C(O)(CCC1=O)C2 (some centres undefined)	> 100	> 100	–
COCC(N=CN1CCCc2ccccc2[C@@H]1CCCCl)C(C)(C)C (some centres undefined)	70	> 100	–
COc1cc(OCc2nc3ccccc3n3cccc23)cc(OC)c1OC	> 100	> 100	–
COc1nc(C)nc2sc3c(c12)CCCC3	> 100	> 100	–
Cc1cc([C@H](C#N)c2nc3ccccc3[nH]2)nc(Cl)n1	> 100	> 100	–
CN1CCC2(CC1)SC[C@H]1C(=O)N(c3ccc(Cl)cc3)C(=O)N12	> 100	> 100	–
CC(=O)O[C@@H]1CC[C@@]2(C)C(CC[C@H]3[C@@H]4CC[C@H]([C@H](C)CCc5nc6ccc(C)cc6[nH]5)[C@@]4(C)CC[C@@H]32)C1 (some centres undefined)	> 100	> 100	–
CC[C@](O)(CC(=O)O[C@H]1C(=O)O[C@@H]2C[C@H]3C(C)=CC(=O)[C@@H](O)[C@]3(C)[C@H]3[C@@]4(O)OC[C@]32[C@@H]1[C@@H](C)[C@H]4O)C(C)C	< 0.01	< 0.01	–
CSc1nc(C)c2c(n1)SCC2	> 10	> 10	–
COC1CC(C)C(OC)C2=CC(=O)C=C(NC(=O)/C(C)=C/C=C\C(C)C(OC(N)=O)/C(C)=C\C(C)C1OC)C2=O (centres undefined)	3.97	6.98	TGI (DLD-1 colon): 2.58 µM; TGI (DMS 114 small cell lung): 17.8 µM; TGI (HOP-18 NSCLC): 15.7 µM; TGI (LXFL 529 NSCLC): 1.8 µM; TGI (M19-MEL melanoma): 6.62 µM; TGI (SNB-78 CNS): 13.6 µM; TGI (XF 498 CNS): 3.13 µM
CCN(CC)c1cc2c3c(c1)CCCN3CCC2	> 10	> 10	–
Cc1cc(C)nc(NS(=O)(=O)c2ccc(NNc3c4ccccc4nc4c(C(=O)Nc5ccc(S(=O)(=O)Nc6ncccn6)cc5)cccc34)cc2)n1	54.3	> 100	–
O=C(O)c1ccc(P(=O)(O)c2ccc(C(=O)O)cc2Br)c(Br)c1	–	> 100	–
CC(C)=CCC[C@@H](C)C1=C(O)C(O)C(C)=C2N=C(c3ccccc3)C(=O)OC21 (some centres undefined)	> 13.7	> 25	–
O=C1c2ccccc2C(O)(C(=O)O)C1(O)CC=C(Cl)Cl (centres undefined)	–	> 125	TGI (DLD-1 colon): > 125 µM; TGI (DMS 114 small cell lung): > 125 µM; TGI (DMS 273 small cell lung): > 125 µM; TGI (HOP-18 NSCLC): > 125 µM; TGI (KM20L2 colon): > 125 µM; TGI (M19-MEL melanoma): > 125 µM; TGI (P388 leukemia): > 125 µM; TGI (P388/ADR leukemia): > 70.3 µM; TGI (SN12K1 renal): > 125 µM; TGI (SNB-78 CNS): > 125 µM; TGI (XF 498 CNS): > 125 µM
COc1cc(C2SCC(=O)N2c2ccccc2Cl)cc(OC)c1OC (centres undefined)	> 100	> 100	–
COc1cccc(OC/C(N=Cc2cccnc2)=N/NC(=O)c2ccncc2)c1	> 100	> 100	–
CN1C2CCC1CC(CCOC(c1ccc(F)cc1)c1ccc(F)cc1)C2 (centres undefined)	30.8	29.2	–
COc1ccc2cc(CNCCCCCCCCCCCCNCc3ccc4cc(OC)ccc4c3)ccc2c1	36.6	27.2	–
O=C1CC(CC(O)[C@@H]2CCCC[C@@H]2O)CC(=O)N1c1ccccc1 (some centres undefined)	> 100	> 100	–
CCN(CC)C(=C(C(Cl)=C(Cl)Cl)[N+](=O)[O-])N(CC)CC	> 100	> 100	–
Cc1oc2c(c1C)S(=O)(=O)C(C#N)C(c1ccccc1)N2 (centres undefined)	> 100	> 100	–
C=C1C(=O)C23CC1C[C@H](OC(C)=O)[C@H]2C1(C)C(OC(C)=O)C[C@H](O)C(C)(C)[C@H]1C(=O)[C@@H]3OC(C)=O (some centres undefined)	14.1	25.3	–
O=C1CC(NC(=O)C(F)(F)F)c2c1csc2Br (centres undefined)	> 100	62.3	–
COc1ccc2nc3c([N+](=O)[O-])ccc4c3c(c2c1)N=CN4CCCN(C)C	15.3	17.8	–
Cc1oc2c(c1C)S(=O)(=O)C(C#N)=C(c1ccccc1)N2	> 100	> 100	–

SMILES	TGI (ACHN renal) [µM]	TGI (SF-268 CNS) [µM]	other results
COC(=O)c1cc2c(o1)Sc1ccccc1NC2=O	> 100	> 100	–
O=C1CC(=O)NC(=NN2C(=O)/C(=C/C(=O)c3ccco3)N=C2c2ccccc2)N1	> 100	> 100	–
Cc1csc2nc3c(cnn3C)c(=S)n12	> 100	> 100	–
COc1ccc([N+]2=NC(c3ccc([N+](=O)[O-])cc3)=NN(c3ccccc3)C2)cc1	> 100	> 100	TGI (DLD-1 colon): > 100 µM; TGI (DMS 114 small cell lung): > 100 µM; TGI (DMS 273 small cell lung): > 100 µM; TGI (KM20L2 colon): > 100 µM; TGI (LXFL 529 NSCLC): > 100 µM; TGI (SNB-78 CNS): > 100 µM; TGI (XF 498 CNS): > 100 µM
Cc1c(C)c2c(c(N)c1C#N)C(=O)N(CCc1ccccc1)C2=O	> 100	> 100	–
COC(=O)c1c(O)ccc2c1c1c(n2Cc2ccccc2)C(=O)c2ccccc2C1=O	25.3	33	–
COc1cc(/C=C(\C#N)c2nc3ccccc3o2)ccc1O	46.9	50.7	–
COc1cc(S(=O)(=O)Nc2nc(-c3ccc(N4C(=O)C(CC(=O)O)SC4c4ccccc4O)cc3)cs2)ccc1Cl (centres undefined)	> 100	> 100	–
CN(C)C=C1C(=O)c2c(Br)sc(Br)c2C1=O	93.7	32.5	–
O=C1NC(=O)C(Cc2ccccc2)(c2cccnc2)N1 (centres undefined)	> 100	> 100	–
O=C(c1cc(Cl)cc(Cl)c1)N(C(=O)N1CCN(c2ccccc2)CC1)c1ccccc1	> 100	> 100	–
Ic1ncnc2c1ncn2C1CCCO1 (centres undefined)	> 100	> 100	TGI (DLD-1 colon): > 100 µM; TGI (DMS 114 small cell lung): > 100 µM; TGI (DMS 273 small cell lung): > 100 µM; TGI (HOP-18 NSCLC): > 100 µM; TGI (KM20L2 colon): > 100 µM; TGI (M19-MEL melanoma): > 100 µM; TGI (SNB-78 CNS): > 100 µM; TGI (XF 498 CNS): > 100 µM
N#CC(C#N)N=Cc1ccncc1	> 100	> 100	–
CCCCCCCCCCCCCCCCCCNc1ccn(C2OC(COP(=O)(O)OC3CC(n4cc(F)c(=O)[nH]c4=O)OC3COP(=O)(O)OCC3OC(n4ccc(N)nc4=O)C(O)C3O)C(O)C2O)c(=O)n1 (centres undefined)	> 100	–	–
CCOC(=O)C(SCCO)C(C(=O)OCC)n1cnc2c(N)ncnc21 (centres undefined)	22.4	35.9	–
CN(C)C=Nc1cccc2nsnc12	> 100	> 100	–
CCOC(=O)C(C(=O)OCC)=C1NC2(c3ccccc3Nc3ccc(C)cc32)C(C#N)S1 (centres undefined)	16.3	36.2	–
CCN(CC)CCC(=O)NC1c2ccc(Cl)cc2Oc2c(C)cccc21 (centres undefined)	–	38.9	–
COc1cc(OCc2ccc3nc(-c4ccccc4)c(Cl)nc3c2)cc(OC)c1OC	> 100	> 100	–
O=c1[nH]c(C23CC4CC(CC(C4)C2)C3)cc2c1c(=O)oc1ccccc12	10.6	9.52	–
COc1ccc2cc(Oc3ccc(Cl)cc3)c(=O)oc2c1	> 100	> 100	–
OC(CCN1CCCCC1)(c1ccccc1)c1ccccc1	> 100	> 100	–
Cc1cc(C)nc(NS(=O)(=O)c2ccc(Nc3c4ccccc4nc4c(C(=O)NNCCO)cccc34)cc2)n1	> 100	> 100	–
COc1cc(S(=O)(=O)Nc2nc(-c3ccc(N4C(=O)CSC4c4cccs4)cc3)cs2)ccc1Cl (centres undefined)	> 100	> 100	–
C[C@]12C[C@H](c3ccccc3)Nc3ccccc3N1C(c1ccccc1)=NO2	> 100	> 100	–
CC1(C)CN=C(c2ccc3c(c2)Cc2cc(C4=NCC(C)(C)N4)ccc2-3)N1	> 100	> 100	–

From PubChem BioAssay (NCI)
